This test has as its target T1, human recombinant HPK1 (Homo sapiens, UniProt Q92918).
T1 construct: purchased BPS Bioscience
Description: Inhibitory activity against human recombinant HPK1 (TR-FRET). The class given is biochemical. As to conditions: ULight-p70S6K peptide, ATP at Km, room temperature, 1 hour, 0.32 to 1000 nM compound. A digest of the protocol:
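IC50 classes A–D use 10, 50 and 100 nM cut-offs, derived from TR-FRET signal inhibition relative to DMSO controls. Human recombinant HPK1 phosphorylated ULight-p70S6K peptide at Km ATP for 1 h, room temperature, pH 7.4; test range 0.32–1000 nM final, detection with Eu-labelled antibody after EDTA quench.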
(In TR-FRET formats the signal depends on donor and acceptor labels being close together.)

Structures are written as SMILES. Where a name gives a salt, the structure may show the parent alone.

T1 sequence (Q92918 whole entry): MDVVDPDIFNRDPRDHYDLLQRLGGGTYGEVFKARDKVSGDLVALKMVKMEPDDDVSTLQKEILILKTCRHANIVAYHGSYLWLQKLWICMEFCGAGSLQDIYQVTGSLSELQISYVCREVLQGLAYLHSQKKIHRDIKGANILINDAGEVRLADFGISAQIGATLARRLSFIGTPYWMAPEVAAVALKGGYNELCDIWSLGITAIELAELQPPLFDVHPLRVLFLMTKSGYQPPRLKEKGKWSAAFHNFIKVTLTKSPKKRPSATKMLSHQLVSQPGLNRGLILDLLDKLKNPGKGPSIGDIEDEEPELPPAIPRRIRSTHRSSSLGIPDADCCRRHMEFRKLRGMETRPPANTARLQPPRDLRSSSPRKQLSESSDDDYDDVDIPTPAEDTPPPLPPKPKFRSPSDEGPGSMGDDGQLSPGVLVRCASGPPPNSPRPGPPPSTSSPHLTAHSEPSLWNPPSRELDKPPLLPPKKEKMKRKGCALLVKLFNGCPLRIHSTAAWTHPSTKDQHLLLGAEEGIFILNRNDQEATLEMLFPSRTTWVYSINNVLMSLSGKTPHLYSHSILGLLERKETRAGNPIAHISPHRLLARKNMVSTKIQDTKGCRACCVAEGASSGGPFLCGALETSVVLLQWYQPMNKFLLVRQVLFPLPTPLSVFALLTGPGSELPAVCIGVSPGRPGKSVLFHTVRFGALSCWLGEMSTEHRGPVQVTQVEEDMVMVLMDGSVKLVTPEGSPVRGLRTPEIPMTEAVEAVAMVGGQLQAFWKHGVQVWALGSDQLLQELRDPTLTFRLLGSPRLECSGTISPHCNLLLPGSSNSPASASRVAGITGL

The term IC50 denotes the midpoint of a concentration-inhibition curve. Consider `COc1cc(F)cc(F)c1-c1nccc(Nc2cc(N3C[C@@H](C)C[C@H](N)C3)c(-c3cnn(C(F)F)c3)cn2)n1` [Example 210, N-(4-((3S,5S)-3-amino-5-methylpiperidin-1-yl)-5-(1-(difluoromethyl)-1H-pyrazol-4-yl)pyridin-2-yl)-2-(2,4-difluoro-6-methoxyphenyl)pyrimidin-4-amine hydrochloride], for which the concentration for half-maximal inhibition (IC50) was at most 10 nM.

In the case of `N[C@H]1CCCN(c2cc(Nc3ccnc(-c4cccnc4O)n3)ncc2-c2cnn(C3CCOCC3)c2)C1` [Example 80, (S)-3-(4-((4-(3-aminopiperidin-1-yl)-5-(1-(tetrahydro-2H-pyran-4-yl)-1H-pyrazol-4-yl)pyridin-2-yl)amino)pyrimidin-2-yl)pyridin-2-ol hydrochloride], the IC50 was at most 10 nM. As to `COc1cccc(F)c1-c1nccc(Nc2cc(N3CCC[C@H](N)C3)c(-c3ccc4c(c3)COC(=O)N4)cn2)n1` [Example 258, (S)-6-(4-(3-aminopiperidin-1-yl)-6-((2-(2-fluoro-6-methoxyphenyl)pyrimidin-4-yl)amino)pyridin-3-yl)-1,4-dihydro-2H-benzo[d][1,3]oxazin-2-one hydrochloride], the concentration for half-maximal inhibition (IC50) was at most 10 nM. For the molecule `COc1cccc(F)c1-c1nccc(Nc2cc(N3CCC[C@H](N)C3)c(-c3ccc(C(=O)N[C@H]4CC[C@H](O)CC4)cc3)cn2)n1` [Example 289, 4-(4-((S)-3-aminopiperidin-1-yl)-6-((2-(2-fluoro-6-methoxyphenyl)pyrimidin-4-yl)amino)pyridin-3-yl)-N-((1r,4S)-4-hydroxycyclohexyl)benzamide hydrochloride], the IC50 was at most 10 nM. As for `COc1cc(F)cc(F)c1-c1nccc(Nc2cc(N3CCC[C@H](O)C3)c(-c3cnn(C(F)F)c3)cn2)n1` [Example 182, (S)-1-(2-((2-(2,4-difluoro-6-methoxyphenyl)pyrimidin-4-yl)amino)-5-(1-(difluoromethyl)-1H-pyrazol-4-yl)pyridin-4-yl)piperidin-3-ol], the figure is at most 10 nM; as for `COc1cccc(F)c1-c1nccc(Nc2cc(N3CCC[C@H](N)C3)c(-c3cnn(CC(F)F)c3)cn2)n1` [Example 134, (S)-N-(4-(3-aminopiperidin-1-yl)-5-(1-(2,2-difluoroethyl)-1H-pyrazol-4-yl)pyridin-2-yl)-2-(2-fluoro-6-methoxyphenyl)pyrimidin-4-amine hydrochloride], at most 10 nM. `COc1cc(F)cc(F)c1-c1nccc(Nc2cc(N3CCC[C@H](O)C3)c(-c3cnn(CC(F)F)c3)cn2)n1` [Example 172, (S)-1-(2-((2-(2,4-difluoro-6-methoxyphenyl)pyrimidin-4-yl)amino)-5-(1-(2,2-difluoroethyl)-1H-pyrazol-4-yl)pyridin-4-yl)piperidin-3-ol]: the 50% inhibitory concentration (IC50) is at most 10 nM.

In the case of `COc1cc(F)cc(F)c1-c1nccc(Nc2cc(N3CCC[C@H](N)C3)c(-c3cnn(CC(F)F)c3)cn2)n1` [Example 158, (S)-N-(4-(3-aminopiperidin-1-yl)-5-(1-(2,2-difluoroethyl)-1H-pyrazol-4-yl)pyridin-2-yl)-2-(2,4-difluoro-6-methoxyphenyl)pyrimidin-4-amine hydrochloride], the concentration for half-maximal inhibition (IC50) is at most 10 nM.

Regarding `COc1cc(F)cc(F)c1-c1nccc(Nc2cc(N3CCC[C@H](O)C3)c(C#Cc3cnn(CC(F)F)c3)cn2)n1` [Example 219, (S)-1-(2-((2-(2,4-difluoro-6-methoxyphenyl)pyrimidin-4-yl)amino)-5-((1-(2,2-difluoroethyl)-1H-pyrazol-4-yl)ethynyl)pyridin-4-yl)piperidin-3-ol], the IC50 is at most 10 nM. Take `COc1cc(F)cc(F)c1-c1nccc(Nc2cc(N3CCC[C@](C)(N)C3)c(-c3cnn(C(F)F)c3)cn2)n1` [Example 212, (S)-N-(4-(3-amino-3-methylpiperidin-1-yl)-5-(1-(difluoromethyl)-1H-pyrazol-4-yl)pyridin-2-yl)-2-(2,4-difluoro-6-methoxyphenyl)pyrimidin-4-amine hydrochloride]: the concentration for half-maximal inhibition (IC50) was at most 10 nM. As for `CCN[C@H]1CCN(c2cc(Nc3ccnc(-c4c(F)cccc4OC)n3)ncc2-c2cnn(C3CCOCC3)c2)C1` [Example 125, (S)-N-(4-(3-(ethylamino)pyrrolidin-1-yl)-5-(1-(tetrahydro-2H-pyran-4-yl)-1H-pyrazol-4-yl)pyridin-2-yl)-2-(2-fluoro-6-methoxyphenyl)pyrimidin-4-amine], the figure is at most 10 nM. On to `COc1cccc(F)c1-c1nc(Nc2cc(N3CCC[C@H](O)C3)c(-c3cnn(C4CCOCC4)c3)cn2)ccc1[N+](=O)[O-]` [Example 41, (3S)-1-(2-((6-(2-fluoro-6-methoxyphenyl)-5-nitropyridin-2-yl)amino)-5-(1-(tetrahydro-2H-pyran-4-yl)-1H-pyrazol-4-yl)pyridin-4-yl)piperidin-3-ol], for which the IC50 was at most 10 nM. On to `COc1cccc(F)c1-c1nccc(Nc2cc(N3CCC[C@H](N)C3)c(-c3cnc4c(c3)OCCN4C)cn2)n1` [Example 256, (S)-N-(4-(3-aminopiperidin-1-yl)-5-(4-methyl-3,4-dihydro-2H-pyrido[3,2-b][1,4]oxazin-7-yl)pyridin-2-yl)-2-(2-fluoro-6-methoxyphenyl)pyrimidin-4-amine hydrochloride], for which the half-inhibitory concentration (IC50) is at most 10 nM. As to `COc1cccc(F)c1-c1nccc(Nc2cc(N3CCC[C@H](O)C3)c(-c3ccc(CN4CCCC(O)C4)nc3)cn2)n1` (stereo partly drawn) [Example 49, 1-((6′-((2-(2-fluoro-6-methoxyphenyl)pyrimidin-4-yl)amino)-4′-((S)-3-hydroxypiperidin-1-yl)-[3,3′-bipyridin]-6-yl)methyl)piperidin-3-ol], the 50% inhibitory concentration (IC50) is over 100 nM. For `COc1cccc(F)c1-c1nccc(Nc2cc(N3CCC[C@H](N)C3)c(-c3cnc4c(c3)OCC(=O)N4)cn2)n1` [Example 275, (S)-7-(4-(3-aminopiperidin-1-yl)-6-((2-(2-fluoro-6-methoxyphenyl)pyrimidin-4-yl)amino)pyridin-3-yl)-2H-pyrido[3,2-b][1,4]oxazin-3(4H)-one hydrochloride], the IC50 is at most 10 nM. `COc1cccc(F)c1-c1nc(Nc2cc(N3CCC[C@H](N)C3)c(-c3cnn(C4CCOCC4)c3)cn2)ccc1N` [Example 181, N^2-(4-((S)-3-aminopiperidin-1-yl)-5-(1-(tetrahydro-2H-pyran-4-yl)-1H-pyrazol-4-yl)pyridin-2-yl)-6-(2-fluoro-6-methoxyphenyl)pyridin-2,5-diamine hydrochloride]: the IC50 is at most 10 nM.

Turning to `COc1cccc(F)c1-c1nccc(Nc2cc(N3CCC[C@H](N)C3)c(-c3cnc(C4CCN(C)CC4)s3)cn2)n1` [Example 98, (S)-N-(4-(3-aminopiperidin-1-yl)-5-(2-(1-methylpiperidin-4-yl)thiazol-5-yl)pyridin-2-yl)-2-(2-fluoro-6-methoxyphenyl)pyrimidin-4-amine hydrochloride], the concentration for half-maximal inhibition (IC50) is at most 10 nM. For `COc1cc(C(=O)N2CC[C@@H](F)C2)cc(F)c1-c1nccc(Nc2cc(N3CCC[C@H](O)C3)c(-c3cnn(C(F)F)c3)cn2)n1` [Example 233, (4-(4-((5-(1-(difluoromethyl)-1H-pyrazol-4-yl)-4-((S)-3-hydroxypiperidin-1-yl)pyridin-2-yl)amino)pyrimidin-2-yl)-3-fluoro-5-methoxyphenyl)((R)-3-fluoropyrrolidin-1-yl)methanone], the half-inhibitory concentration (IC50) was at most 10 nM.

Regarding `COCCCn1cc(-c2cnc(Nc3ccnc(-c4c(F)cccc4OC)n3)cc2N2CCC[C@H](N)C2)cn1` [Example 116, (S)-N-(4-(3-aminopiperidin-1-yl)-5-(1-(3-methoxypropyl)-1H-pyrazol-4-yl)pyridin-2-yl)-2-(2-fluoro-6-methoxyphenyl)pyrimidin-4-amine hydrochloride], the half-maximal inhibitory concentration (IC50) was at most 10 nM. On to `COc1cccc(F)c1-c1nc(Nc2cc(N3CCC[C@H](N)C3)c(-c3cnn(C(F)(F)F)c3)cn2)ccc1N` [Example 173, N^2-(4-((S)-3-aminopiperidin-1-yl)-5-(1-(trifluoromethyl)-1H-pyrazol-4-yl)pyridin-2-yl)-6-(2-fluoro-6-methoxyphenyl)pyridin-2,5-diamine hydrochloride], for which the IC50 is at most 10 nM. For the molecule `COc1cccc(F)c1-c1nccc(Nc2cc(N3CCC[C@H](O)C3)c(-c3ccc4nccn4c3)cn2)n1` [Example 61, (S)-1-(2-((2-(2-fluoro-6-methoxyphenyl)pyrimidin-4-yl)amino)-5-(imidazo[1,2-a]pyridin-6-yl)pyridin-4-yl)piperidin-3-ol], the IC50 lay in the range of 10 to 50 nM. As for `COc1cccc(F)c1-c1nccc(Nc2cc(N3CCC[C@H](N)C3)c(-c3ccc(C4CCOCC4)nc3)cn2)n1` [Example 82, (S)-4-(3-aminopiperidin-1-yl)-N-(2-(2-fluoro-6-methoxyphenyl)pyrimidin-4-yl)-6′-(tetrahydro-2H-pyran-4-yl)-[3,3′-bipyridin]-6-amine hydrochloride], the IC50 is at most 10 nM. As to `COc1cccc(F)c1-c1nccc(Nc2cc(N3CCC[C@H](N)C3)c(-c3ccc(C(=O)N4CCOCC4)cc3)cn2)n1` [Example 255, (S)-(4-(4-(3-aminopiperidin-1-yl)-6-((2-(2-fluoro-6-methoxyphenyl)pyrimidin-4-yl)amino)pyridin-3-yl)phenyl)(morpholino)methanone hydrochloride], the half-maximal inhibitory concentration (IC50) is at most 10 nM. Take `COc1cccc(F)c1-c1nccc(Nc2cc(N3CC(O)C3)c(C#CC3CCOCC3)cn2)n1` [Example 10, 1-(2-((2-(2-fluoro-6-methoxyphenyl)pyrimidin-4-yl)amino)-5-((tetrahydro-2H-pyran-4-yl)ethynyl)pyridin-4-yl)azetidin-3-ol]: the IC50 fell in the range of 10 to 50 nM. Turning to `COc1cccc(F)c1-c1nccc(Nc2cc(N3CCCC(CF)C3)c(-c3cnn(C4CCOCC4)c3)cn2)n1` (stereo not shown) [Example 85, 2-(2-fluoro-6-methoxyphenyl)-N-(4-(3-(fluoromethyl)piperidin-1-yl)-5-(1-(tetrahydro-2H-pyran-4-yl)-1H-pyrazol-4-yl)pyridin-2-yl)pyrimidin-4-amine], the IC50 is at most 10 nM.

Source of the values: patent US20260347338A1, “PYRIMIDINE/PYRIDINE DERIVATIVES OR SALTS THEREOF AND PHARMACEUTICAL COMPOSITIONS COMPRISING THE SAME” (YUHAN CORPORATION, priority 2023, published 2026).
